Laboratory results reported in patent publication US11446287B2, “Compounds and methods for EP300 or CBP modulation and indications therefor” (Opna Immuno-Oncology SA, priority 2019, dated 2022).

These molecules were tested against T1, Recombinant human CBP containing the bromodomain (CBP-BD (1043-1159)) (Homo sapiens, UniProt Q92793) (assay: CBP Alphascreen binding assay). Details: read-out: CREBBP (CBP) IC50.
T1 construct: Recombinant human CBP bromodomain (CBP-BD (1043-1159)); made in house; host or cells: E. coli BL21-CodonPlus (DE3), modified pET vector
T1 sequence (Q92793 1081-1197): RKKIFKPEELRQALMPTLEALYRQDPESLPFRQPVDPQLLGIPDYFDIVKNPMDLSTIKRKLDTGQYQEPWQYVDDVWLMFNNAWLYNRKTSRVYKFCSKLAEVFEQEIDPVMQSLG
Method: CBP Alphascreen Binding Assay
Binding of compounds of Formula (I) with CBP was assessed using Alphascreen™ binding assay. The inhibition of the interaction between the CBP bromodomain and its acetylated target protein was measured quantitatively using recombinant CBP, an acetylated Histone 3 peptide and AlphaScreen™ technology. In absence of inhibition of the CBP protein bound to AlphaScreen™ nickel chelate acceptor beads can interact with the acetylated Histone 3 peptide which was immobilized by the AlphaScreen™ Streptavidin coated beads. This interaction brings donor and acceptor beads in proximity. The close proximity allows the singlet oxygen produced by laser excitation of the donor beads to reach the acceptor beads and generate a luminescence signal. CBP inhibitors result in a decrease in the proximity signal through an inhibition of the CBP—acetylated peptide interaction.
Recombinant human CBP containing the bromodomain (CBP-BD (1043-1159)) was prepared and purified as described in protein expression and purification session. The peptide was human Histone H345-64K56Ac-Biotin (Anaspec CA, USA).
Protocol for CBP assay: All components are prepared in buffer composed of 50 mM HEPES pH 7.5, 50 mM NaCl, 0.01% BSA, 0.01% Triton X-100, 2 mM DTT. Test compounds and DMSO vehicle are diluted 1:50 in buffer and a 4 μL volume was transferred to an Alphaplate. 5.5 μL of CBP protein and 5.5 μL of peptide are added to wells containing 4 μL of various concentrations of test compounds of Formula (I) or DMSO vehicle in an Alphaplate (PerkinElmer GA, USA) and incubated for 1 hour at room temperature. 5 μL donor and acceptor bead mixture was then added with final concentrations of 7.5 μg/ml. 60 minutes after bead addition, Alpha signal was read on the Envision spectrometer (λEx 680 nm, λEm 520-620 nm). Final concentrations of bromodomain proteins and peptide are as shown below.
All data were normalized to the mean of 16 high and 16 low control wells on each plate. A four parameter curve fit of the following formula was then applied: Y=A+((B−A)/(1+((C/x)^D))) Where ‘A’ is the minimum, ‘B’ is the maximum, ‘C’ is the IC50 and ‘D’ is the Hill slope. Protein Expression and Purification
Recombinant human CBP bromodomain (CBP-BD (1043-1159)) was expressed in E. coli cells (in a modified pET vector) with an N-terminal six-His tag and purified using a combination of both IMAC (Ni-affinity) and size exclusion chromatography steps.
Recombinant CBP protein was expressed using the E. coli strain BL21-CodonPlus (DE3) (Agilent Technologies CA, USA). Cells were grown in Terrific Broth (TB) media to an OD600 of 0.92 at 37° C. at which temperature was reduced to 20° C., protein was induced with 1.0 mM isopropyl-β-D-thiogalactopyranoside (“IPTG”) for 20 hours and harvested by centrifugation at 8500×g for 20 minutes. Cells were re-suspended in 0.1M K2PO4 pH 8.0, 250 mM NaCl, 10% Glycerol, 0.75% NP-40, 25 mM Imidazole, with 0.2 mg/ml Lysozyme, 0.2 mM phenylmethanesulfonyl fluoride (“PMSF”), […] (“BME”), 25 μg/ml DNase I, incubated on ice for 30 minutes and lysed with a cell disruptor (MicroFluidics MA, USA). The lysate was clarified by centrifugation at 20,000×g for 1 hour. The protein was captured with Ni-NTA resin (Life Technologies, USA). Contaminating proteins were washed off with 40 mM HEPES pH 7.5, 500 mM NaCl, 5% Glycerol, 5 mM Imidazole, and 5 mM BME. Following 3× wash steps, protein was eluted using 400 mM Imidazole in 40 mM HEPES pH 7.5, 400 mM NaCl, and 5 mM BME. The protein was further purified using a size exclusion column (26/600 Superdex 200, GE Biosciences NJ, USA) in 40 mM HEPES pH 7.5, 250 mM NaCl, 5 mM BME. The protein was aliquoted and flash-frozen in liquid Nitrogen.

Row | SMILES | IC50 [µM]
1 | Cc1noc(C)c1-c1cnc2c(c1)c(-c1ccc(C(=O)O)cc1OCc1ccccc1)cn2[C@@H](C)c1ccccn1 [P-0139, (S)-3-(benzyloxy)-4-(5-(3,5-dimethylisoxazol-4-yl)-1-(1-(pyridin-2-yl)ethyl)-1H-pyrrolo[2,3-b]pyridin-3-yl)benzoic acid] | 0.0001 to 1
2 | COc1ccc(C(=O)O)cc1-c1cn(C(C)c2ccccc2)c2cc(-c3c(C)noc3C)cnc12 (centres unmarked) [P-0140, 3-(6-(3,5-dimethylisoxazol-4-yl)-1-(1-phenylethyl)-1H-pyrrolo[3,2-b]pyridin-3-yl)-4-methoxybenzoic acid] | 1 to 8
3 | Cc1noc(C)c1-c1cnc2c(-c3cc(C(=O)O)ccc3Cl)cn(C(C)c3ccccc3)c2c1 (centres unmarked) [P-0141, 4-chloro-3-(6-(3,5-dimethylisoxazol-4-yl)-1-(1-phenylethyl)-1H-pyrrolo[3,2-b]pyridin-3-yl)benzoic acid] | 0.0001 to 1
4 | COc1cc(C(=O)O)ccc1-c1cn([C@@H](C)c2ccccn2)c2cc(-c3c(C)noc3C)cnc12 [P-0142, (S)-4-(6-(3,5-dimethylisoxazol-4-yl)-1-(1-(pyridin-2-yl)ethyl)-1H-pyrrolo[3,2-b]pyridin-3-yl)-3-methoxybenzoic acid] | 0.0001 to 1
5 | Cc1noc(C)c1-c1cnc2c(CC3CCC3)cn(-c3ccc(O)nc3)c2c1 [P-0143, 5-(3-(cyclobutylmethyl)-6-(3,5-dimethylisoxazol-4-yl)-1H-pyrrolo[3,2-b]pyridin-1-yl)pyridin-2-ol] | 1 to 8
6 | COc1cc(C(=O)O)cc(O)c1-c1cn([C@@H](C)c2ccccn2)c2ncc(-c3c(C)noc3C)cc12 [P-0144, (S)-4-(5-(3,5-dimethylisoxazol-4-yl)-1-(1-(pyridin-2-yl)ethyl)-1H-pyrrolo[2,3-b]pyridin-3-yl)-3-hydroxy-5-methoxybenzoic acid] | 0.0001 to 1
7 | Cc1noc(C)c1-c1cnc2c(c1)c(-c1ccnc(O)c1)cn2[C@@H](C)c1ccccn1 [P-0145, (S)-4-(5-(3,5-dimethylisoxazol-4-yl)-1-(1-(pyridin-2-yl)ethyl)-1H-pyrrolo[2,3-b]pyridin-3-yl)pyridin-2-ol] | 8 to 1000
8 | COc1cc(C(=O)O)cc(OC)c1-c1cn([C@@H](C)c2ccccn2)c2cc(-c3c(C)noc3C)cnc12 [P-0146, (S)-4-(6-(3,5-dimethylisoxazol-4-yl)-1-(1-(pyridin-2-yl)ethyl)-1H-pyrrolo[3,2-b]pyridin-3-yl)-3,5-dimethoxybenzoic acid] | 1 to 8
9 | CCOc1cc(C(=O)O)cc(OCC)c1-c1cn([C@@H](C)c2ccccn2)c2ncc(-c3c(C)noc3C)cc12 [P-0147, (S)-4-(5-(3,5-dimethylisoxazol-4-yl)-1-(1-(pyridin-2-yl)ethyl)-1H-pyrrolo[2,3-b]pyridin-3-yl)-3,5-diethoxybenzoic acid] | 0.0001 to 1
10 | CC[C@@H](c1ccccn1)n1cc(-c2cc(C(=O)O)ccc2Cl)c2ncc(-c3c(C)noc3C)cc21 [P-0148, (S)-4-chloro-3-(6-(3,5-dimethylisoxazol-4-yl)-1-(1-(pyridin-2-yl)propyl)-1H-pyrrolo[3,2-b]pyridin-3-yl)benzoic acid] | 0.0001 to 1
11 | Cc1noc(C)c1-c1cc2c(cn1)c(CC1CCC1)cn2-c1c(Cl)cc(C(=O)O)cc1Cl [P-0149, 3,5-dichloro-4-(3-(cyclobutylmethyl)-6-(3,5-dimethylisoxazol-4-yl)-1H-pyrrolo[3,2-c]pyridin-1-yl)benzoic acid] | 0.0001 to 1
12 | Cc1noc(C)c1-c1cnc2c(-c3ccccc3)cn(-c3c(Cl)cc(C(=O)O)cc3Cl)c2c1 [P-0150, 3,5-dichloro-4-(6-(3,5-dimethylisoxazol-4-yl)-3-phenyl-1H-pyrrolo[3,2-b]pyridin-1-yl)benzoic acid] | 0.0001 to 1
13 | Cc1noc(C)c1-c1cnc2c(C3=CCOCC3)cn(-c3c(Cl)cc(C(=O)O)cc3Cl)c2c1 [P-0151, 3,5-dichloro-4-(3-(3,6-dihydro-2H-pyran-4-yl)-6-(3,5-dimethylisoxazol-4-yl)-1H-pyrrolo[3,2-b]pyridin-1-yl)benzoic acid] | 0.0001 to 1
14 | COc1cc(C(=O)O)cc(OCC2CC2)c1-c1cn([C@@H](C)c2ccccn2)c2ncc(-c3c(C)noc3C)cc12 [P-0152, (S)-3-(cyclopropylmethoxy)-4-(5-(3,5-dimethylisoxazol-4-yl)-1-(1-(pyridin-2-yl)ethyl)-1H-pyrrolo[2,3-b]pyridin-3-yl)-5-methoxybenzoic acid] | 0.0001 to 1
15 | COc1cc(C(=O)O)cc(OCC(F)(F)F)c1-c1cn([C@@H](C)c2ccccn2)c2ncc(-c3c(C)noc3C)cc12 [P-0153, (S)-4-(5-(3,5-dimethylisoxazol-4-yl)-1-(1-(pyridin-2-yl)ethyl)-1H-pyrrolo[2,3-b]pyridin-3-yl)-3-methoxy-5-(2,2,2-trifluoroethoxy)benzoic acid] | 0.0001 to 1
16 | Cc1noc(C)c1-c1cnc2c(-c3ccc(C(=O)O)cc3)c(C(F)(F)F)n([C@@H](C)c3ccccn3)c2c1 [P-0154, (S)-4-(6-(3,5-dimethylisoxazol-4-yl)-1-(1-(pyridin-2-yl)ethyl)-2-(trifluoromethyl)-1H-pyrrolo[3,2-b]pyridin-3-yl)benzoic acid] | 0.0001 to 1
17 | Cc1noc(C)c1-c1cnc2c(-c3ccccc3Cl)cn(C(C)(c3ccccn3)c3ccccn3)c2c1 [P-0155, 4-(3-(2-chloropheny1)-1-(1,1-di(pyridin-2-yl)ethyl)-1H-pyrrolo[3,2-b]pyridin-6-yl)-3,5-dimethylisoxazole] | 0.0001 to 1
18 | Cc1noc(C)c1-c1cnc2c(c1)c(-c1ccc(C(=O)O)cc1OC(F)(F)F)cn2C(C1CC1)C1CC1 [P-0156, 4-(1-(dicyclopropylmethyl)-5-(3,5-dimethylisoxazol-4-yl)-1H-pyrrolo[2,3-b]pyridin-3-yl)-3-(trifluoromethoxy)benzoic acid] | 0.0001 to 1
19 | Cc1noc(C)c1-c1cnc2c(c1)c(-c1ccc(C(=O)O)cc1OC(F)(F)F)cn2CC1CC(F)(F)C1 [P-0157, 4-(1-((3,3-difluorocyclobutyl)methyl)-5-(3,5-dimethylisoxazol-4-yl)-1H-pyrrolo[2,3-b]pyridin-3-yl)-3-(trifluoromethoxy)benzoic acid] | 0.0001 to 1
20 | Cc1noc(C)c1-c1cnc2c(c1)c(-c1ccc(C(=O)O)cc1OC(F)(F)F)cn2-c1ccccn1 [P-0158, 4-(5-(3,5-dimethylisoxazol-4-yl)-1-(pyridin-2-yl)-1H-pyrrolo[2,3-b]pyridin-3-yl)-3-(trifluoromethoxy)benzoic acid] | 0.0001 to 1
21 | Cc1noc(C)c1-c1cnc2c(Cc3ccccn3)cn(-c3ccc(C(=O)O)cc3OC(F)(F)F)c2c1 [P-0159, 4-(6-(3,5-dimethylisoxazol-4-yl)-3-(pyridin-2-ylmethyl)-1H-pyrrolo[3,2-b]pyridin-1-yl)-3-(trifluoromethoxy)benzoic acid] | 0.0001 to 1
22 | Cc1noc(C)c1-c1cnc2c(-c3cnn(C)c3)c(C(F)(F)F)n([C@@H](C)c3ccccn3)c2c1 [P-0160, (S)-3,5-dimethyl-4-(3-(1-methyl-1H-pyrazol-4-yl)-1-(1-(pyridin-2-yl)ethyl)-2-(trifluoromethyl)-1H-pyrrolo[3,2-b]pyridin-6-yl)isoxazole] | 0.0001 to 1
23 | Cc1noc(C)c1-c1cnc2c(-c3cccc(CC(=O)O)c3)c(C(F)(F)F)n([C@@H](C)c3ccccn3)c2c1 [P-0161, (S)-2-(3-(6-(3,5-dimethylisoxazol-4-yl)-1-(1-(pyridin-2-yl)ethyl)-2-(trifluoromethyl)-1H-pyrrolo[3,2-b]pyridin-3-yl)phenyl)acetic acid] | 0.0001 to 1
